“Also recorded” adds a separate entry of the source. Read-outs that look alike come from different tables or passages of the source.
Key:
Lactobacillus species = test: Effect on indigenous stool microflora (Example 3), quantitative culture; assay type: in vivo, mice
Method: Female CF1 mice (Harlan Sprague-Dawley, Indianapolis) weighing 25-30 g were used in these experiments. In order to minimize the risk of cross-contamination, mice were housed in individual cages with plastic filter tops. […] Quantitative cultures for facultative and aerobic gram-negative bacilli, enterococci, total anaerobes, Bacteroides species, Lactobacillus species, and Clostridium species were performed by plating serially-diluted specimens onto MacConkey agar (Difco Laboratories, Detroit), Enterococcosel agar (Becton Dickinson, Cockeysville, Md.), Brucella agar (Becton Dickinson), Bacteroides bile esculin agar, Rogosa agar, and Egg Yolk agar, respectively. For culture of anaerobes, stool samples were processed inside an anaerobic chamber (Coy Laboratories, Grass Lake, Mich.). Denaturing gradient gel electrophoresis (DGGE) of PCR-amplified bacterial ribosomal RNA genes from stool was performed as described by Donskey et al. (supra).

Enterococcus species = test: as above; assay type: in vivo, mice
VRE [1] = test: Effect of prior ramoplanin treatment on establishment of VRE colonization (Example 4); assay type: in vivo, mice; settings: 10^7 CFU VRE 4 hours or 1, 2, 4 days after 7 days of 100 μg/ml; P>0.05 vs controls
Description: The density of VRE in stool was monitored before and 1 and 4 days after inoculation. Four mice were included in each treatment group.

S. pneumoniae = settings: 20 strains; cited from earlier work
Bacteroides species = test: Effect on indigenous stool microflora (Example 3), quantitative culture; assay type: in vivo, mice; settings: 100 μg/mL in drinking water, seven days
VRE [2] = test: Prevention of cross-transmission of VRE among mice in communal cages (Example 5); assay type: in vivo
Method: One set of experiments was performed to evaluate the ability of ramoplanin to prevent cross-transmission and overgrowth of VRE among mice in communal cages. High-density VRE stool colonization (˜7 log10 CFU/g) was established in 2 mice as described above. […] All mice were treated with subcutaneous clindamycin (1.4 mg) once daily for 5 days. After 9 days, all mice were separated into individual cages and supplied with regular drinking water.

E faecalis = settings: 30 strains; cited from earlier work
[3] = system: E. faecium C68 (VanB-type clinical VRE isolate); test: Minimum-inhibitory concentration for VRE C68; assay type: cell-based
Method: Pathogens Studied: E. faecium C68, a previously described VanB-type clinical VRE isolate, was used for the following murine VRE experiments (Donskey et al., J. Microbial. Meth. 1807: 1-8, 2003). […] Klebsiella pneumoniae P62 is a clinical isolate that produces an SHV type extended-spectrum β-lactamase (ESBL). Candida glabrata A239 is a clinical isolate with a fluconazole minimum-inhibitory concentration of 2 μg/mL.

[4] = system: clinical isolate VanA strain of E. faecium (VRE); test: VRE suppression in a mouse model (Example 1); assay type: in vivo, mice
Description: Mice were colonized with a clinical isolate VanA strain of E. faecium (VRE) isolated from a septicemic patient. A single inoculation of 5×10^8 cfu VRE by oral gavage (Day 0) was followed by treatment with vancomycin in the drinking water to maintain colonization. On day 22, each group received the same vancomycin-containing drinking water. […] The control group consisted of five mice, while the ramoplanin group consisted of four mice.

[5] = In vitro interaction with human gastro-intestinal contents
Description: The in vitro interaction of ramoplanin with human gastro-intestinal contents was studied.

[6] = Oral administration to healthy male volunteers: absorption and excretion (Example 7, 7.1); assay type: in vivo, human
Method: Both bioassay and HPLC-based assays to assess the absorption, distribution, metabolism, and excretion were utilized in these studies.
The predetermined dose was reconstituted in 5 mL water per vial, mixed with 50 mL of sweetened, aromatized solution, and immediately administered orally to the subjects.

[7] = system: VRE (VRE faecium, VRE faecalis); test: In vitro activity (MIC90), internal Phase II isolates; assay type: cell-based, vancomycin-resistant Enterococcus; settings: 235 strains, internal Phase II data
VRE [8] = test: Multiple dose study in asymptomatic carriers of gastro-intestinal VRE (Example 7.2); assay type: in vivo, human; settings: for patients with no detectable VRE: p<0.01; for patients who remained VRE free: Day 14 (seven days after cessation)
Method: Patients were assessed by rectal swab on Days 7, 14, and 21 to determine the presence or absence of VRE. […] All VRE isolates were tested for susceptibility to ramoplanin.

[9] = Storage stability of ramoplanin granules for oral solution; assay type: physicochemical
Method: The contents of the packet can be reconstituted with approximately 15-30 mL of water, and the resulting solution either consumed directly, or further diluted with water, cranberry juice, apple juice, or 7-Up prior to drinking. After consumption, the drug may be followed with subsequent amounts of these beverages or with food (e.g., cracker, bread). […] Alternatively, ramoplanin is available as capsules containing pharmaceutically acceptable excipients that are generally regarded as safe.

S. aureus (MSSA) = settings: 140 strains; cited from earlier work
[10] = system: facultative and aerobic gram-negative bacilli; test: Effect on indigenous stool microflora (Example 3), quantitative culture; assay type: in vivo, mice
[11] = 3 days after discontinuation (day 10)
[12] = Day 22, prior to ramoplanin therapy
[13] = Day 36, 7 days after completion of ramoplanin therapy
[14] = single oral doses up to 1000 mg, multiple 200, 400 or 800 mg BID 10 days, bioassay and HPLC

With Ramoplanin the “Lactobacillus species in stool” value (Lactobacillus species; [11]) was “returned to pre-treatment levels”, the “Lactobacillus species in stool” value (Lactobacillus species; ramoplanin treatment, P<0.001) was “markedly reduced” and the “Enterococcus species in stool” value (Enterococcus species; at least 11 days after discontinuation (day 18)) was “remained significantly reduced”. For the same substance, the “Enterococcus species in stool” value (Enterococcus species; ramoplanin treatment, P<0.001) was “significantly reduced”, the “overgrowth / establishment of VRE stool colonization after prior ramoplanin treatment” value (VRE [1]) was “did not facilitate the establishment of stool colonization; also recorded: did not develop significant overgrowth of VRE” and the “Ramoplanin MIC90” value (S. pneumoniae) was under 0.03 mg/L. For the same substance, the “mean density of Bacteroides species in stool” value (Bacteroides species) was “not significantly affected”, the “VRE colonization in the colonized mouse added to the communal cage” value (VRE [2]; 100 μg/ml in drinking water, clindamycin-treated mice) was “rapidly inhibited” and the “VRE colonization of the other mice during ramoplanin treatment” value (VRE [2]; 100 μg/ml in drinking water, communal cage) was “none of the other mice developed detectable levels of colonization”. The “mice with VRE colonization detected after discontinuation of ramoplanin” value (VRE [2]; within 5 days after transfer to individual cages, 4 of 5 mice) was 80%, the “Ramoplanin MIC90” value (E faecalis) was 0.5 mg/L and the minimum-inhibitory concentration [3] was 0.125 µg/mL. For the same substance, the “% Mice with VRE” value [4, 12] was 100%, the “Enterococci: VRE” value [4, 12] was 9.7 log 10 cfu/g faeces and the “Enterococci: VRE” value ([4]; Day 29, completion of ramoplanin therapy) was under 3.1 log 10 cfu/g faeces. For the same substance, the “% Mice with VRE” value ([4]; Day 29, completion of ramoplanin therapy (15 mg/kg/day in drinking water, with 25 mg/kg/day vancomycin)) was 0%, the “% Mice with VRE” value [4, 13] was 100% and the “Enterococci: VRE” value [4, 13] was 8.7 log 10 cfu/g faeces. The “VRE concentration per gram of faeces” value ([4]; after one week of treatment, all animals) was under 3.1 log units, the “binding to solid components of faeces” value [5] was “bind reversibly” and the “microbiological activity in faeces” value [5] was “microbiologically active in faeces”. For the same substance, the ramoplanin in stool (100 μg/ml dose, 3 days after discontinuation (day 10)) was “no ramoplanin was detectable”, the “concentration in stool, range” value (100 μg/ml dose, day 7 of treatment, n=5 mice) was 156 to 312.5 µg/g and the “concentration in stool, range” value (300 μg/ml dose, day 7, n=5 mice) was 300 to 320 µg/g. For the same substance, the “absorption from the human gastro-intestinal tract” value ([6]; 200, 400 or 800 mg twice a day, ten days) was “very little, if any, is absorbed; also recorded: No absorption”, the “faecal concentration, average” value ([6]; Day 3, 200 mg group) was 827 µg/g and the “faecal concentration, average” value ([6]; Day 3, 400 mg group) was 1742 µg/g. The “faecal concentration, average” value ([6]; Day 3, 800 mg group) was 1901 µg/g, the “faecal concentration, average” value ([6]; Day 10, 200 mg group) was 949 µg/g and the “faecal concentration, average” value ([6]; Day 10, 400 mg group) was 1417 µg/g. For the same substance, the “faecal concentration, average” value ([6]; Day 10, 800 mg group) was 2647 µg/g, the ramoplanin in urine ([6]; day 1 or 5 and pooled urine up to 72-96 after the last dose) was “no ramoplanin was detected” and the ramoplanin in serum ([6]; days 1, 5, 10, 0.5-12 hours after the morning dose, 200, 400 or 800 mg twice a day) was “not detected”. For the same substance, the faecal concentrations post-treatment ([6]; four days post-treatment) was “remained detectable in some subjects”, the ramoplanin in serum/plasma [6, 14] was “not detected” and the ramoplanin in urine [6, 14] was “not detected”. The “cumulative recovery in faeces” value ([6]; up to Day 4 post-treatment) was 25 % of the administered dose, the “Ramoplanin MIC90” value [7] was 0.5 mg/L and the “patients with no detectable VRE” value (VRE [8]; Day 7, 100 mg BID for seven days, 17 of 21 patients) was 81.0%. The “patients with no detectable VRE” value (VRE [8]; Day 7, 400 mg BID for seven days, 18 of 20 patients) was 90.0%, the “patients who remained VRE free” value (VRE [8]; 100 mg BID, 6 of 21 patients) was 28.6% and the “patients who remained VRE free” value (VRE [8]; 400 mg BID, 7 of 17 patients) was 41.2%. The “number of VRE-free patients” value (VRE [8]; Day 21) was “comparable among all treatment groups”, the “stability of 400 mg granulated powder packets” value ([9]; refrigerated conditions) was “stable for at least one year” and the “shelf life of reconstituted aqueous solution” value ([9]; stored at refrigerated conditions) was 48 h. For the same substance, the “Ramoplanin MIC90” value (S. aureus (MSSA)) was 0.5 mg/L, the “mean density of total facultative and aerobic gram-negative bacilli in stool” value [10, 11] was “not significantly different from baseline” and the “mean density of total facultative and aerobic gram-negative bacilli in stool” value ([10]; day 7 of treatment, P<0.05) was “increased significantly”.

— patent US20100113334A1, “METHODS FOR REDUCING OR PREVENTING TRANSMISSION OF NOSOCOMIAL PATHOGENS IN A HEALTH CARE FACILITY” (priority 2003, published 2010)
